Patent US11649255B2, “Indazoles as hematopoietic progenitor kinase 1 (HPK1) inhibitors and methods using same” (1st Biotherapeutics, Inc., priority 2020, dated 2023)
pIC50: −log10 of the molar value.

Target: recombinant human HPK1 (Homo sapiens (Human), UniProt Q92918)
Assay: HPK1 kinase assay (ADP-Glo)
Type: biochemical
Settings: 25 μM ATP, MBP substrate
In short: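 Activity was read as ADP formed, detected by ADP-Glo luminescence after the reaction of 5 ng recombinant human HPK1 with MBP and ATP (stocks 0.5 μg/μl and 25 μM) for 40 min at 30 °C. Buffer was Tris pH 7.5 with MgCl2, BSA and DTT, with compound in 0.5% DMSO. IC50 came from inhibition curves.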

recombinant human HPK1, sequence (Q92918 whole entry): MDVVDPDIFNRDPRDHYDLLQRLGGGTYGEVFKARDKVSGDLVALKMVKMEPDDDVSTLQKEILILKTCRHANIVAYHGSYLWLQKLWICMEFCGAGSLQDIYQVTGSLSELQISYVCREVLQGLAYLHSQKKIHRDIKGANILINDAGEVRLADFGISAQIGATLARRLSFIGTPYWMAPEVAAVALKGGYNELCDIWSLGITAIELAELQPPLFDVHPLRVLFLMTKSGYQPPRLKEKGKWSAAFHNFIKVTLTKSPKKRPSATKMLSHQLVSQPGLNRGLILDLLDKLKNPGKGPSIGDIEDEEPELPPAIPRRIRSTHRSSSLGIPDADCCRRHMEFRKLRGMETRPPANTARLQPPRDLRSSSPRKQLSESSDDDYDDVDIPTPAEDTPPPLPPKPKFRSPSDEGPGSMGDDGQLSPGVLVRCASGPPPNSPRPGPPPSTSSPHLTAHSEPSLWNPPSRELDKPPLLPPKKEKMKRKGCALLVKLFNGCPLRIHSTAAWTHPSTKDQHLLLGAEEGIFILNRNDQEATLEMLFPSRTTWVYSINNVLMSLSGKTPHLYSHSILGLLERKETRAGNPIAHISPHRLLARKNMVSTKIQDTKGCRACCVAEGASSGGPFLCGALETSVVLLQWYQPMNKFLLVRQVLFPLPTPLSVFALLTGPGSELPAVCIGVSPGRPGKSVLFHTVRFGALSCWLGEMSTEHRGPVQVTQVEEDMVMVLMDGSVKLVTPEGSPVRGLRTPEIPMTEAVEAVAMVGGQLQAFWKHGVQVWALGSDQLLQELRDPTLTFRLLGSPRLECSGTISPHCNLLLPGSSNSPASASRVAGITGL

Compound | pIC50
Cc1c(F)c(S(C)(=O)=O)c2[nH]ncc2c1-c1ccc2nc(NC(=O)[C@@H]3C[C@@H]3F)cn2c1 [Example 302, (1S,2S)-2-fluoro-N-(6-(6-fluoro-5-methyl-7-(methylsulfonyl)-1H-indazol-4-yl)imidazo[1,2-a]pyridin-2-yl)cyclopropane-1-carboxamide] | 6.30 to 7.00
COc1cc(C)c(-c2ccc3nc(NC(=O)[C@@H]4C[C@@H]4F)sc3c2)c2cn[nH]c12 [Example 96, (1S,2S)-2-fluoro-N-(6-(7-methoxy-5-methyl-1H-indazol-4-yl)benzo[d]thiazol-2-yl)cyclopropanecarboxamide] | > 7.00
Cc1ccc2[nH]ncc2c1-c1ccc2nc(NC(=O)[C@@H]3C[C@@H]3F)sc2n1 [Example 146, (1S,2S)-2-fluoro-N-(5-(5-methyl-1H-indazol-4-yl)thiazolo[5,4-b]pyridin-2-yl)cyclopropane-1-carboxamide] | 6.30 to 7.00
C[S+]([O-])c1c(F)c(Cl)c(-c2ccn3nc(NC(=O)[C@@H]4C[C@@H]4F)cc3c2)c2cn[nH]c12 (stereo partly drawn) [Example 538, (1S,2S)-N-(5-(5-chloro-6-fluoro-7-(methylsulfinyl)-1H-indazol-4-yl)pyrazolo[1,5-a]pyridin-2-yl)-2-fluorocyclopropane-1-carboxamide] | > 7.00
O=C(Nc1cn2cc(-c3c(Cl)c(F)c(N4CCOCC4)c4[nH]ncc34)ccc2n1)[C@@H]1C[C@@H]1F [Example 279, (1S,2S)-N-(6-(5-chloro-6-fluoro-7-morpholino-1H-indazol-4-yl)imidazo[1,2-a]pyridin-2-yl)-2-fluorocyclopropane-1-carboxamide] | > 7.00
C[C@H]1[C@H](C(=O)Nc2cc3cc(-c4c(Cl)c(F)c(N(C)C)c5[nH]ncc45)ccn3n2)[C@H]1c1cnn(C)c1 [Example 646, (1S,2R,3S)-N-(5-(5-chloro-7-(dimethylamino)-6-fluoro-1H-indazol-4-yl)pyrazolo[1,5-a]pyridin-2-yl)-2-methyl-3-(1-methyl-1H-pyrazol-4-yl)cyclopropane-1-carboxamide] | > 7.00
CN(C)C1CCC(Nc2c(F)c(Cl)c(-c3ccn4nc(NC(=O)[C@@H]5C[C@@H]5F)cc4c3)c3cn[nH]c23)CC1 (stereo partly drawn) [Example 512, (1S,2S)-N-(5-(5-chloro-7-((4-(dimethylamino)cyclohexyl)amino)-6-fluoro-1H-indazol-4-yl)pyrazolo[1,5-a]pyridin-2-yl)-2-fluorocyclopropane-1-carboxamide] | > 7.00
Cc1cccn1-c1c(F)c(Cl)c(-c2ccn3nc(NC(=O)[C@@H]4C[C@@H]4F)cc3c2)c2cn[nH]c12 [Example 644, (1S,2S)-N-(5-(5-chloro-6-fluoro-7-(2-methyl-1H-pyrrol-1-yl)-1H-indazol-4-yl)pyrazolo[1,5-a]pyridin-2-yl)-2-fluorocyclopropane-1-carboxamide] | > 7.00
CC(NC(=O)C(F)(F)F)c1c(F)c(Cl)c(-c2ccc3nc(NC(=O)[C@@H]4C[C@@H]4F)cn3c2)c2cn[nH]c12 (stereo partly drawn) [Example 428, (1S,2S)-N-(6-(5-chloro-6-fluoro-7-(1-(2,2,2-trifluoroacetamido)ethyl)-1H-indazol-4-yl)imidazo[1,2-a]pyridin-2-yl)-2-fluorocyclopropane-1-carboxamide] | > 7.00
CN1CCN(c2c(F)c(Cl)c(-c3ccn4nc(NC(=O)[C@@H]5C[C@@H]5F)cc4c3)c3cn[nH]c23)C1=O [Example 623, (1S,2S)-N-(5-(5-chloro-6-fluoro-7-(3-methyl-2-oxoimidazolidin-1-yl)-1H-indazol-4-yl)pyrazolo[1,5-a]pyridin-2-yl)-2-fluorocyclopropane-1-carboxamide] | > 7.00
CCc1c(F)c(SC2(C#N)CC2)c2[nH]ncc2c1-c1ccn2nc(NC(=O)[C@@H]3C[C@@H]3F)cc2c1 [Example 608, (1S,2S)-N-(5-(7-((1-cyanocyclopropyl)thio)-5-ethyl-6-fluoro-1H-indazol-4-yl)pyrazolo[1,5-a]pyridin-2-yl)-2-fluorocyclopropane-1-carboxamide] | > 7.00
Cc1c(F)c(F)c2[nH]ncc2c1-c1ccc2nc(NC(=O)[C@@H]3C[C@@H]3F)sc2n1 [Example 186, (1S,2S)-N-(5-(6,7-difluoro-5-methyl-1H-indazol-4-yl)thiazolo[5,4-b]pyridin-2-yl)-2-fluorocyclopropane-1-carboxamide] | > 7.00
O=Cc1c(F)c(Cl)c(-c2ccn3nc(NC(=O)[C@@H]4C[C@@H]4F)cc3c2)c2cn[nH]c12 [Example 626, (1S,2S)-N-(5-(5-chloro-6-fluoro-7-formyl-1H-indazol-4-yl)pyrazolo[1,5-a]pyridin-2-yl)-2-fluorocyclopropane-1-carboxamide] | > 7.00
CCOC(=O)CSc1c(F)c(CC)c(-c2ccc3nc(NC(=O)[C@@H]4C[C@@H]4F)sc3n2)c2cn[nH]c12 [Example 165, ethyl 2-((5-ethyl-6-fluoro-4-(2-((1S,2S)-2-fluorocyclopropane-1-carboxamido)thiazolo[5,4-b]pyridin-5-yl)-1H-indazol-7-yl)thio)acetate] | > 7.00
O=C(Nc1nc2ccc(-c3c(Cl)ccc4[nH]ncc34)cc2s1)C1CC1 [Example 16, N-(6-(5-chloro-1H-indazol-4-yl)benzo[d]thiazol-2-yl)cyclopropanecarboxamide] | 6.30 to 7.00
COc1c(F)c(C)c(-c2ccc3nc(NC(=O)[C@@H]4C[C@@H]4F)sc3c2)c2cn[nH]c12 [Example 97, (1S,2S)-2-fluoro-N-(6-(6-fluoro-7-methoxy-5-methyl-1H-indazol-4-yl)benzo[d]thiazol-2-yl)cyclopropanecarboxamide] | > 7.00
N#Cc1c(F)cc2[nH]ncc2c1-c1ccc2nc(NC(=O)[C@@H]3C[C@@H]3F)sc2n1 [Example 157, (1S,2S)-N-(5-(5-cyano-6-fluoro-1H-indazol-4-yl)thiazolo[5,4-b]pyridin-2-yl)-2-fluorocyclopropane-1-carboxamide] | 6.30 to 7.00
CC(Nc1c(F)c(Cl)c(-c2ccc3nc(NC(=O)[C@@H]4C[C@@H]4F)cn3c2)c2cn[nH]c12)C1CC1 (stereo partly drawn) [Example 420, (1S,2S)-N-(6-(5-chloro-7-((1-cyclopropylethyl)amino)-6-fluoro-1H-indazol-4-yl)imidazo[1,2-a]pyridin-2-yl)-2-fluorocyclopropane-1-carboxamide] | > 7.00
CCc1c(F)c(SC(C)(C)C#N)c2[nH]ncc2c1-c1ccn2nc(NC(=O)[C@@H]3C[C@@H]3F)cc2c1 [Example 603, (1S,2S)-N-(5-(7-((2-cyanopropan-2-yl)thio)-5-ethyl-6-fluoro-1H-indazol-4-yl)pyrazolo[1,5-a]pyridin-2-yl)-2-fluorocyclopropane-1-carboxamide] | > 7.00
CN(C)c1c(F)c(Cl)c(-c2ccc3nc(NC(=O)[C@@H]4C[C@@H]4F)sc3c2)c2cn[nH]c12 [Example 69, (1S,2S)-N-(6-(5-chloro-7-(dimethylamino)-6-fluoro-1H-indazol-4-yl)benzo[d]thiazol-2-yl)-2-fluorocyclopropane-1-carboxamide] | > 7.00
CNC(=O)c1c(F)c(C)c(-c2ccc3nc(NC(=O)[C@@H]4C[C@@H]4F)sc3n2)c2cn[nH]c12 [Example 206, 6-fluoro-4-(2-((1S,2S)-2-fluorocyclopropane-1-carboxamido)thiazolo[5,4-b]pyridin-5-yl)-N,5-dimethyl-1H-indazole-7-carboxamide] | 6.30 to 7.00
